In patent publication US9556110B2, “Aminoalcohol lipidoids and uses thereof” (Massachusetts Institute of Technology, priority 2008, dated 2017):

Tested on: Factor VII
Test: In vivo Factor VII knockdown after injection of anti-Factor VII siRNA lipidoid formulations
Design: species or system C57BL/6 mice
Conditions: mice, 0.01 mg/kg siRNA dosing
Protocol: C57BL/6 mice (Charles River Labs) received either saline or siRNA in lipidoid formulations via tail vein injection at a volume of 0.01 ml/g. […] At 48 hours after administration, animals were anesthetized by isofluorane inhalation and blood was collected into serum separator tubes by retroorbital bleed. Serum levels of Factor VII protein were determined in samples using a chromogenic assay (Biophen FVII, Aniara Corporation) according to the manufacturer's protocols. A standard curve was generated using serum collected from saline-treated animals. Exemplary results are depicted in FIG. 7.
To test siRNA delivery efficacy in vivo, a mouse model for liver delivery was used. […] Once produced by hepatocytes, Factor VII is released into the bloodstream, and a baseline level of expression can be determined by simple blood draw and quantification of protein levels by colorimetric assay. By delivering anti-Factor VII siRNA to hepatocytes, knockdown of this model protein can be achieved and a percentage of silencing can be determined by comparison to an untreated control. […]
Following the initial in vivo screening experiments, two compounds were used to conduct a dose response. […] In addition to Factor VII measurement, the change in mouse body weight is recorded and a loss in weight is generally considered formulation induced toxicity (See FIG. 13b and FIG. 14b). […]

CCCCCCCCCCC(O)CN(CCN1CCN(CCN(CC(O)CCCCCCCCCC)CC(O)CCCCCCCCCC)CC1)CCN(CC(O)CCCCCCCCCC)CC(O)CCCCCCCCCC (racemic) [C12-200]
difference of Factor VII reduction between racemic lipidoid and R or S forms: insignificant

CCCCCCCCCC[C@H](O)CN(CCN1CCN(CCN(C[C@@H](O)CCCCCCCCCC)C[C@@H](O)CCCCCCCCCC)CC1)CCN(C[C@@H](O)CCCCCCCCCC)C[C@@H](O)CCCCCCCCCC [(S)—C12-200]
reduction of systemic Factor VII (preliminary): approximately 50%
